US20050107311A1, “Buffalo milk gangliosides” (priority 2001, published 2005)

Assays:
[1] = biological target: B-subunit of cholera toxin (CTB) (Vibrio cholerae serotype O1, UniProt P01556)
nar-3, a rotavirus toxin = experiment: Binding to rotavirus toxin nar-3; conditions: GD3 from Folch LP vs UP
rotavirus particles = experiment: Binding to rotavirus particles

Sequence of B-subunit of cholera toxin (CTB) (P01556 22-124 limits assumed): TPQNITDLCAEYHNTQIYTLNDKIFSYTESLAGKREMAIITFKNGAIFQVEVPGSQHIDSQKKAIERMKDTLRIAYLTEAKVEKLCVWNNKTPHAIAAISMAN

Row | Substance | binding of cholera toxin subunit B (CTB) [1] | binding to nar-3 (nar-3, a rotavirus toxin) | other results
1 | GD1a | not capable of binding the toxin |  | 
2 | GD3 [GD3 isolated from the aqueous UP] |  | did not bind to this toxin | 
3 | GD3 [GD3 species isolated from the organic LP] |  | bound to nar-3 | 
4 | GM1 [GM1 isolated from buffalo milk serum] | binds to cholera toxin subunit B |  | 
5 | GM1 [bovine-brain GM1 species] | bind CTB |  | 
6 | GM3 [GM3 species] |  |  | binding of rotavirus particles (rotavirus particles): bind rotavirus particles
